# Where two headings read alike, the source gives them in different places. Positions of bridges follow the written chain, without caps; N, C: chain ends. Non-standard residues stand in square brackets, D forms with d. Residues, ends and D or L forms follow the SMILES beside them. Primed or numbered codes have the meaning given here. No end group written: not given here. FITC′ = not defined here; PEG4′ = not defined here
# What was measured:
# [1] = system: Hep3B cells; assay: Flow cytometry affinity assay to Hep3B cells that do not express integrin α6; type: cell-based, human; details: FITC flow cytometry; Hep3B does not express integrin α6
# Procedure: (§1) The expression of integrin α6 and β4 in human hepatoma cells HCCLM3, human hepatoma cells Huh-7, human hepatoma cells Hep3B, human nasopharyngeal carcinoma cells S18 and human breast cancer cells MDA-MB-231 were detected by flow cytometry. […] Integrin β4 is expressed in HCCLM3, S18 and MDA-MB-231 cells (FIG. 3F, FIG. 3G, FIG. 3I, FIG. 3J). […] Each cell had 3 duplicate wells. • 2) 2 μl of 1 mM RWYD-PEG4-K-FITC (structural formula shown in FIG. 1B, referred to as RD) or CRWYDENAC-PEG4-K-FITC (referred to as RWY) was added into cells, mixed well, and incubate in an incubator at 37° C. for 2 hours. • 3) The culture medium containing polypeptides was absorbed and removed, the cells were washed with PBS for 3 times, 500 μl/time. • 4) The cells were digested with trypsin, resuspended with medium and centrifuged at 300 g for 5 minutes. • 5) The supernatant was discarded and cell precipitation was preserved, and the cells were resuspended with 500 μl saline and placed into the flow tube. • 6) The FITC channel was detected by flow machine and the results were analyzed by CytExpert.
# (§2) RWYD-PEG4 forms dimers or polyploids via lysine (K) ligations. Flow cytometry was used to detect expression of integrin α6 in tumor cells. […] The specific operation of affinity assay of tumor cells to RD2 is similar to that of “affinity assay of tumor cells to RD”.
# [2] = system: tumor cells with high integrin α6 expression (HCCLM3, Huh-7, S18, MDA-MB-231; also HT29, KYSE30, SW620, SW1990 for RD2); assay: Affinity of RD/RD2 to tumor cells with high integrin α6 expression by flow cytometry; type: cell-based, human; details: FITC probes, 37° C., 2 hours
# Procedure: as §1, §2
# [3] = system: Hep3B cells; assay: Affinity of RD/RD2 to Hep3B cells (no integrin α6 expression) by flow cytometry; type: cell-based, human; details: FITC probes, 37° C., 2 hours
# Procedure: as §1, §2
# [4] = target: integrin α6β1 (Homo sapiens, UniProt P05556+P23229); assay: MST affinity to integrin α6β1; type: binding
# [5] = target: T1, integrin α6β4 (Homo sapiens, UniProt P23229); assay: Microscale thermophoresis (MST) affinity to integrin α6β4; type: binding; details: for Affinity relative to RWY: relative to CRWYDENAC (RWY) = 1.00
# T1 sequence (P23229 24-1050 limits assumed): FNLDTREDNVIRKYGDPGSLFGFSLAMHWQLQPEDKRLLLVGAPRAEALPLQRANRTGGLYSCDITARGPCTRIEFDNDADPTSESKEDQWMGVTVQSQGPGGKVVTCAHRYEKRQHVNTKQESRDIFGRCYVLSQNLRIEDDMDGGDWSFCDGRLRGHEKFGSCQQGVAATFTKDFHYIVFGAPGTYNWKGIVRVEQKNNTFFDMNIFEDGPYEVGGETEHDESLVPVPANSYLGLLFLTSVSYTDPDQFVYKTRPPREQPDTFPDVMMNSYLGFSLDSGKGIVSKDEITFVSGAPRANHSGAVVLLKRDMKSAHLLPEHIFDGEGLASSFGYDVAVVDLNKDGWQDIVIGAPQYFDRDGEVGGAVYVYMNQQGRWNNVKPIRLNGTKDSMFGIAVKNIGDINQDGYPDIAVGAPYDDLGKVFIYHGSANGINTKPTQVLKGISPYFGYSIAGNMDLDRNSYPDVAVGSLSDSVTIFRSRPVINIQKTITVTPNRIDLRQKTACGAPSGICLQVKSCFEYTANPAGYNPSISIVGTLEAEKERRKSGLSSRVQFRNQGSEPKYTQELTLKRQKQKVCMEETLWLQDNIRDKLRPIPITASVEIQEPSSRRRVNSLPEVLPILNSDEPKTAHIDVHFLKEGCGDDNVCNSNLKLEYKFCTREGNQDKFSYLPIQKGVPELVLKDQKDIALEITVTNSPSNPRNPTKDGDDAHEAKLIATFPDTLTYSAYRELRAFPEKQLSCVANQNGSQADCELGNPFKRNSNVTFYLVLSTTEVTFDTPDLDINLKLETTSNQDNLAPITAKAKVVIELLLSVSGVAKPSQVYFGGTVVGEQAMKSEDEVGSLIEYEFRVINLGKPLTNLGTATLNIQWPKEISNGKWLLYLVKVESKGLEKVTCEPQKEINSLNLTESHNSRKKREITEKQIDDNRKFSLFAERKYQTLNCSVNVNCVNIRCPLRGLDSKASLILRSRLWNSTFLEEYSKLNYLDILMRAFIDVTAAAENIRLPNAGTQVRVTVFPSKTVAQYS
# T1 sequence (P16144 28-710 partner limits assumed): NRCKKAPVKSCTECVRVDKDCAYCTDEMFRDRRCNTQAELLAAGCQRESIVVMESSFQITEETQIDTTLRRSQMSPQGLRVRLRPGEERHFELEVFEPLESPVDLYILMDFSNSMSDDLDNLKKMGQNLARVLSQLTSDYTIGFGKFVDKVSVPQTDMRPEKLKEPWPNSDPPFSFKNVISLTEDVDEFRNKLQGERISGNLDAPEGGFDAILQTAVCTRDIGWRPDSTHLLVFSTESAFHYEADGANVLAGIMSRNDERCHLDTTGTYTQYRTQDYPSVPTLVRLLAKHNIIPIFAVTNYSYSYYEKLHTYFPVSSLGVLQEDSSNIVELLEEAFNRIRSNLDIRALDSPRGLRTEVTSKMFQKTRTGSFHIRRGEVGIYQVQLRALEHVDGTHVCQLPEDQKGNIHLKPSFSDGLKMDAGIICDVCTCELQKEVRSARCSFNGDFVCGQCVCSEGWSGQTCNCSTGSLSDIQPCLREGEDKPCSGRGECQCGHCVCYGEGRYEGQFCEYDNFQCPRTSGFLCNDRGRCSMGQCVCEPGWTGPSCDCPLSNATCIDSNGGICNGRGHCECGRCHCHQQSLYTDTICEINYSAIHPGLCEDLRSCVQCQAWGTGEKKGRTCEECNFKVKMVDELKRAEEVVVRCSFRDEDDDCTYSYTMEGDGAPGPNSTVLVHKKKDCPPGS
# Procedure: (§3) The affinity between these 18 polypeptides and integrin α6β4 was detected by microscale thermophoresis (MST) method as follows: • 1) Integrin α6β4 protein was dissolved to 800 nM, and polypeptide was dissolved to 100 μM. • 2) A RED-tris-NTA second-generation dye was diluted to 100 nM by using the MO series RED-tris-NTA protein labeling kit. • 3) 100 μl α6β4 protein was mixed with 50 μl dye and incubated at room temperature for 30 min, so that the α6β4 protein binds to the dye. • 4) 10 μl polypeptide was transferred into a PCR tube, and was diluted with PBST (containing 0.05% Tween 20) at a ratio of 1:1 to 16 gradients of concentrations. • 5) 3 μl protein/dye mixture was transferred into a PCR tube, 3 μl of 16 different concentrations of polypeptides was respectively added and mixed well. • 6) The mixture was absorbed by capillary and loaded on machine (instrument model Monolith NT.115) to assay, parameters were set as 80% LED/excitation power and medium MST power. • 7) MO. Affinity Analysis software was used to calculate the equilibrium dissociation constant KD between α6β4 protein and polypeptide by KD fitting mode.
# [6] = target: T2, integrin α6β4 (Homo sapiens, UniProt P16144+P23229); assay: as above; type: binding; details: MST
# T2 sequence (P23229 24-1050 limits assumed): T1 sequence (P23229 24-1050 limits assumed)
# T2 sequence (P16144 28-710 partner limits assumed): T1 sequence (P16144 28-710 partner limits assumed)
# Procedure: as §3
# [7] = system: tumor cells with high integrin α6 expression; assay: Flow cytometry affinity assay to tumor cells with high integrin α6 expression; type: cell-based, human
# Procedure: as §1, §2
# [8] = target: T3, integrin α6β4 (Homo sapiens, UniProt P23229); assay: Affinity between polypeptide mutants and integrin α6β4 by microscale thermophoresis (MST); type: binding
# T3 sequence (P23229 24-938 limits assumed): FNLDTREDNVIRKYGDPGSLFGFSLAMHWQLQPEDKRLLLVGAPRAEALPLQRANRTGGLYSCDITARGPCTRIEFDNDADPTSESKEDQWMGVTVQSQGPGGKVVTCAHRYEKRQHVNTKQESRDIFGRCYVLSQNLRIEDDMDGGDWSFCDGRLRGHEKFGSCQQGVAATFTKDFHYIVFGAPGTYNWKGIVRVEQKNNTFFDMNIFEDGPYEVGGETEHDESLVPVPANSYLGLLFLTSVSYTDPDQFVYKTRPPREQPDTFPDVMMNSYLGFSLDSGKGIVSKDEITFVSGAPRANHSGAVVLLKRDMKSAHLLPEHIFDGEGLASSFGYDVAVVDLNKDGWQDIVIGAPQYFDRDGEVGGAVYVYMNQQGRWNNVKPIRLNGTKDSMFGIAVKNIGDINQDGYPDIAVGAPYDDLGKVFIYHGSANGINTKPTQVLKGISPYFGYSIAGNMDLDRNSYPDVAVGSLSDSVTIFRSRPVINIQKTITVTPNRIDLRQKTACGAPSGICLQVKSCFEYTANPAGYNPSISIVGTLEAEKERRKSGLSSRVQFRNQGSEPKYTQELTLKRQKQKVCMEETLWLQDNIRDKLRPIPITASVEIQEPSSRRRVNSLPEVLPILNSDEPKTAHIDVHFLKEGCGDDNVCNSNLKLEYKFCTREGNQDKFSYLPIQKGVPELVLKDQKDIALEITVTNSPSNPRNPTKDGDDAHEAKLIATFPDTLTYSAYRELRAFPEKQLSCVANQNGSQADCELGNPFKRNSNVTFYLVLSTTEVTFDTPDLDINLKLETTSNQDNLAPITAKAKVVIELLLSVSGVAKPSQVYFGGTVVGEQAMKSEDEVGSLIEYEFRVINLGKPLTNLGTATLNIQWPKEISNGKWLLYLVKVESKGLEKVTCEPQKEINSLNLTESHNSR
# T3 sequence (P23229 942-1050 limits assumed): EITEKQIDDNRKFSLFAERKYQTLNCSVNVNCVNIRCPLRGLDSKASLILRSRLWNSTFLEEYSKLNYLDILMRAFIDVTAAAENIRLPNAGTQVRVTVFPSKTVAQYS
# T3 sequence (P16144 28-710 partner limits assumed): T1 sequence (P16144 28-710 partner limits assumed)
# Procedure: as §3
# [9] = integrin α6β4, determination 1, read-out: KD (um) 1
# [10] = integrin α6β4, determination 3, read-out: KD (um) 3
# [11] = integrin α6β4, mean of 3, read-out: KD Mean value (μm)
# [12] = integrin α6β4, determination 2, read-out: KD (um) 2
# Chain of integrin α6β1 (P05556 21-728 partner limits assumed, one chain of several): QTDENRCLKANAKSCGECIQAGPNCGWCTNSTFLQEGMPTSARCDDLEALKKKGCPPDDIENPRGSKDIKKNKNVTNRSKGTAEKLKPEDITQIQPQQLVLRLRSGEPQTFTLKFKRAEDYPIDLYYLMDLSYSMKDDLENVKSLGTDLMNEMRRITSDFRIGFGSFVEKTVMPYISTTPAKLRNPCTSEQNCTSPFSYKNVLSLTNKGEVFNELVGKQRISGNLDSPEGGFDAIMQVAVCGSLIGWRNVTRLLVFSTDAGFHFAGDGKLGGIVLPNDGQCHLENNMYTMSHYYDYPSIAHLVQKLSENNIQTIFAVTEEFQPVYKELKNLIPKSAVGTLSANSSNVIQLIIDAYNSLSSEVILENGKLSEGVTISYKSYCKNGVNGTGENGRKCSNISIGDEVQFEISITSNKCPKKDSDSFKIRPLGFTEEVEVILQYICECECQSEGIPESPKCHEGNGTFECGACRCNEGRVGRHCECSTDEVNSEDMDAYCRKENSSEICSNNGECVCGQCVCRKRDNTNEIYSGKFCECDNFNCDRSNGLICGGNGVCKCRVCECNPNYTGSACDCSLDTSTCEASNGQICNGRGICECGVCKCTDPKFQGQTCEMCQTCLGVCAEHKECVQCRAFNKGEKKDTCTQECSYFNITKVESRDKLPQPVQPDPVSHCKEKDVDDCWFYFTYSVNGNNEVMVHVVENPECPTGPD
molecule,measurement,setting,value
CRWYDENAC-PEG4-K-FITC (CRWYDENAC[PEG4′]K-{FITC′}; disulfide 1-9 (inferred)) [reference compound] [listing 1 of 2 here],"Affinity to Hep3B cells, RD versus RWY",[1],consistent
RWYD-PEG4-K-FITC [RD] [listing 1 of 2 here],affinity to tumor cells,[2],stronger affinity to tumor cells with high integrin α6 expression than RWY
same,affinity to Hep3B cells,[3],consistent with Hep3B cells
"N=C(N)NCCC[C@H](N)C(=O)N[C@@H](Cc1c[nH]c2ccccc12)C(=O)N[C@@H](Cc1ccc(O)cc1)C(=O)N[C@@H](CC(=O)O)C(=O)O [P15, RWYD] (H-RWYD-OH; N-terminus and C-terminus assumed)",Kd,[4],0.0531 ± 0.0287 µM
same,Affinity increase relative to CRWYDENAC,[5]; integrin α6β4,327 times
same,Affinity relative to RWY,[5],326.875
same,Kd,[6]; [9],0.02 µM
same,Kd,[6]; [10],0.026 µM
same,Kd,[6]; [11],0.02 µM
same,Kd,"[6]; integrin α6β4, read-out: KD",0.0218 ± 0.00386 µM
CRWYDENAC-PEG4-K-FITC (CRWYDENAC[PEG4′]K-{FITC′}; disulfide 1-9 (inferred)) [reference compound] [listing 2 of 2 here],affinity to Hep3B cells,[3],consistent with Hep3B cells
"C[C@@H]1NC(=O)[C@H](CC(N)=O)NC(=O)[C@H](CCC(=O)O)NC(=O)[C@H](CC(=O)O)NC(=O)[C@H](Cc2ccc(O)cc2)NC(=O)[C@H](C)NC(=O)[C@H](CCCNC(=N)N)NC(=O)[C@@H](N)CSSC[C@@H](C(=O)O)NC1=O [P3, CRAYDENAC] (H-CRAYDENAC-OH; disulfide 1-9; N-terminus and C-terminus assumed)",Affinity relative to RWY,[5],0.52
same,Kd,[6]; [9],14.4 µM
same,Kd,[6]; [12],11.8 µM
same,Kd,[6]; [10],13.8 µM
same,Kd,[6]; [11],13.3 µM
(RWYD-PEG4)2-K-K-FITC (not fully specified) [FITC-labeled RWYD dimer],Affinity to tumor cells with high integrin α6 expression compared with RWYD-PEG4-K-FITC,"[7]; HCCLM3, S18, HT29, Huh7, MDA-MB-231, KYSE30, SW620, SW1990",stronger affinity
(RWYD-PEG4)2-K-K-FITC (not fully specified) [RD2],affinity to tumor cells,[2],stronger affinity to tumor cells with high integrin α6 expression
"N=C(N)NCCC[C@H](N)C(=O)N[C@@H](Cc1c[nH]c2ccccc12)C(=O)N[C@@H](Cc1ccc(O)cc1)C(=O)N[C@@H](CC(=O)O)C(=O)N[C@@H](CCC(=O)O)C(=O)O [P13, RWYDE] (H-RWYDE-OH; N-terminus and C-terminus assumed)",Affinity relative to RWY,[5],0.11
same,Kd,[6]; [9],14.7 µM
same,Kd,[6]; [12],78.8 µM
same,Kd,[6]; [10],99.6 µM
same,Kd,[6]; [11],64.4 µM
(RWYD-PEG4)2-K-K-NOTA (not fully specified),Kd,[8],0.0648 ± 0.0282 µM
same,affinity increase of RWYD-PEG4 dimer over RWYD-PEG4-K-NOTA,[8]; NOTA conjugates,about 10 times
RWYD-PEG4-K-FITC [RD] [listing 2 of 2 here],"Affinity to Hep3B cells, RD versus RWY",[1],consistent
same,Affinity to tumor cells with high integrin α6 expression compared with RWY,"[7]; FITC flow cytometry, HCCLM3, Huh7, S18, MDA-MB-231, 37° C., 2 hours",stronger affinity

# Reference: US20240342320A1, “POLYPEPTIDE TARGETING INTEGRIN ALPHA 6 AND USE THEREOF” (GUANGZHOU GENBIONOVA MEDICAL TECHNOLOGY CO., LTD., priority 2021, published 2024)
